SMILES strings stand for the structures.

Assay [1] concerns the target Tyrosine-protein kinase SYK (Homo sapiens, UniProt P43405). The assay is described as follows: Selectivity interaction (Kinase panel (Z-LYTE Assay)) EUB0001632a SYK. The following applies: at 10 µM.
Assay [2] has as its target T1, Interleukin-1 receptor-associated kinase 3 (Homo sapiens) (UniProt Q9Y616).
T1 sequence (whole entry): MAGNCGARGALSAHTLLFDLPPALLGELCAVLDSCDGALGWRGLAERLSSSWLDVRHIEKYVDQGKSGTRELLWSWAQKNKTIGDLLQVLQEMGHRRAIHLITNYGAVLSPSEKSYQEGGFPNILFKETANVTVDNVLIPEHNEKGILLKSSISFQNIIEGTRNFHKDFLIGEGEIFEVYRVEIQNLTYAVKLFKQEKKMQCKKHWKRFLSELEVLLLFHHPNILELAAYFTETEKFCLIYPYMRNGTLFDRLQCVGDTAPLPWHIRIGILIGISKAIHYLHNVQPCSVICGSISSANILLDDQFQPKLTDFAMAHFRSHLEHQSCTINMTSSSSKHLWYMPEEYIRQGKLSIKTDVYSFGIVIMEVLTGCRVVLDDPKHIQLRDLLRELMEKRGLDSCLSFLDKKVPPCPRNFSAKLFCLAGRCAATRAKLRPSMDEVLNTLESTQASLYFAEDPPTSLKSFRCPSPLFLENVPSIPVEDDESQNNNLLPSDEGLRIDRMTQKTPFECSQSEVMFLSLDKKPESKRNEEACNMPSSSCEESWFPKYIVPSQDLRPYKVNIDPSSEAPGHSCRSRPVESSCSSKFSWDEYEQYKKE
The assay is described as follows: Selectivity interaction (Ambit KINOMEscan and KiNATiv profiling in Jurkat cells) EUB0000090b IRAK3. It is filed as cell-based. The following applies: at 1 µM.

The target of assay [3] is Receptor tyrosine-protein kinase erbB-4 (Homo sapiens, UniProt Q15303). The assay is described as follows: Selectivity interaction (Ambit KINOMEscan and KiNATiv profiling in Jurkat cells) EUB0000090b ERBB4. It is filed as cell-based. The following applies: at 1 µM.
Assay [4] addresses Leukocyte tyrosine kinase receptor (Homo sapiens, UniProt P29376). The assay is described as follows: Selectivity interaction (SelectScreen profiling (Invitrogen)) EUB0000607a LTK. The following applies: at 2 µM.
Assay [5] has as its target Casein kinase II subunit alpha (Homo sapiens, UniProt P68400). Put plainly: Selectivity interaction (KinomeScan (DiscoverX)) EUB0001619a CSNK2A1. To be noted: at 1 µM.
Assay [6] deals with T2, Serine/threonine-protein kinase greatwall (Homo sapiens) (UniProt Q96GX5).
T2 sequence (whole entry): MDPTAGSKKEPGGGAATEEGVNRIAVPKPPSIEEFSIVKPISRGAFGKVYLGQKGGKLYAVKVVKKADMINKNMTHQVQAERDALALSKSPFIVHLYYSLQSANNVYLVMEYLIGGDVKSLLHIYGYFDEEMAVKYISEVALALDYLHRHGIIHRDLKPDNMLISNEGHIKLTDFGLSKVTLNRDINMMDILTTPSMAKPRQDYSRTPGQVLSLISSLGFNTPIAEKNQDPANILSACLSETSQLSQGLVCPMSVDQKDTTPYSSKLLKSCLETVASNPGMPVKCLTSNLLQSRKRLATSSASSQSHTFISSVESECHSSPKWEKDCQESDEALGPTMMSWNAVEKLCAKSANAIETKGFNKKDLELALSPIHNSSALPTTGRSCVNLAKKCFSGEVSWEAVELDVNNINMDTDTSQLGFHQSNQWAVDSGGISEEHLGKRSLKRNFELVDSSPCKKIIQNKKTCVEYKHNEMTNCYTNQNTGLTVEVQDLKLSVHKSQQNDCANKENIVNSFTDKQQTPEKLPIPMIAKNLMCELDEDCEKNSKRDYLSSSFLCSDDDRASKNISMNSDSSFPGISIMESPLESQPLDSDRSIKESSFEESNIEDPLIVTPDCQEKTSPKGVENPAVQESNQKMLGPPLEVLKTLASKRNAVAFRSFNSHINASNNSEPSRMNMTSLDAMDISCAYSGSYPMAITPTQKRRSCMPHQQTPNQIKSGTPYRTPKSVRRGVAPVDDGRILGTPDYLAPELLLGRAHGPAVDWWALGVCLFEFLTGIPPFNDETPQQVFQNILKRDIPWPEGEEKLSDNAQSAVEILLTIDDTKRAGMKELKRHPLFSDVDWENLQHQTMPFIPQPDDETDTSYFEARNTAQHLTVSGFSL
The assay is described as follows: Selectivity interaction (ActivX KiNativ screen (kinase selectivity in THP-1 cell lysates)) EUB0000639a MASTL. The class given is subcellular. The following applies: lysate, at 0.01 µM.

The target of assay [7] is T3, Ephrin type-B receptor 2 (Homo sapiens) (UniProt P29323).
T3 sequence (whole entry): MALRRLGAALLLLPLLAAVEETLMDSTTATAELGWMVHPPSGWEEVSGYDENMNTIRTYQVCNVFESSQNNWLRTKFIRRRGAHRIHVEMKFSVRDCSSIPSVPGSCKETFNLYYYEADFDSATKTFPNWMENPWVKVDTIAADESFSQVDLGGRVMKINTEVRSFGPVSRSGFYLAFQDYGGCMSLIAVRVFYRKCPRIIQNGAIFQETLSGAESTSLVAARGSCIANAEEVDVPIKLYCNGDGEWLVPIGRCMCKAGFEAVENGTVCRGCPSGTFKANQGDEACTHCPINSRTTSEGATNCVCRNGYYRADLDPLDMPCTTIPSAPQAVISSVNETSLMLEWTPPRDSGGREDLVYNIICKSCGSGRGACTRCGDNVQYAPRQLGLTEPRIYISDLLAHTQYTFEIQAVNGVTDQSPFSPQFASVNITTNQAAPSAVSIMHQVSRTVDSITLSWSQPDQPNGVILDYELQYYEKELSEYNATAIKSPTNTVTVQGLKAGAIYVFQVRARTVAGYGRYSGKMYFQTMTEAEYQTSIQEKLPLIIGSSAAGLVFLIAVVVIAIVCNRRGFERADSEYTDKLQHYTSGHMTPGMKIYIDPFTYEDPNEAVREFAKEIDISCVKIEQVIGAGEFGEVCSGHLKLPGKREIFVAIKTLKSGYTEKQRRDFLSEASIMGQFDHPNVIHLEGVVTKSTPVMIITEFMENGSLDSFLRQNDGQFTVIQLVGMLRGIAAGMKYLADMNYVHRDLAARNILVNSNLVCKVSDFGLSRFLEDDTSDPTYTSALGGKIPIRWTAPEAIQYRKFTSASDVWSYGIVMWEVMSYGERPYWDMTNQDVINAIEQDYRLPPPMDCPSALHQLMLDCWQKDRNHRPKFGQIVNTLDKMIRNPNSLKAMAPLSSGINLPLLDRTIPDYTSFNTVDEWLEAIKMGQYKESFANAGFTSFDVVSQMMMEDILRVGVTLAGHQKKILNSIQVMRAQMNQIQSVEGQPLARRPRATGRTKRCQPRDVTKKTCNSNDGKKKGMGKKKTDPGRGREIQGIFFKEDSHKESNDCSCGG
Put plainly: Selectivity interaction (ProQinase) EUB0000171b EPHB2.

For assay [8], the target named is Cyclin-dependent kinase 16 (Homo sapiens) (UniProt Q00536). The assay is described as follows: Selectivity interaction (KinomeScan (DiscoverX)) EUB0000045b CDK16.
Sequence of Cyclin-dependent kinase 16 (Homo sapiens) (Q00536 whole entry): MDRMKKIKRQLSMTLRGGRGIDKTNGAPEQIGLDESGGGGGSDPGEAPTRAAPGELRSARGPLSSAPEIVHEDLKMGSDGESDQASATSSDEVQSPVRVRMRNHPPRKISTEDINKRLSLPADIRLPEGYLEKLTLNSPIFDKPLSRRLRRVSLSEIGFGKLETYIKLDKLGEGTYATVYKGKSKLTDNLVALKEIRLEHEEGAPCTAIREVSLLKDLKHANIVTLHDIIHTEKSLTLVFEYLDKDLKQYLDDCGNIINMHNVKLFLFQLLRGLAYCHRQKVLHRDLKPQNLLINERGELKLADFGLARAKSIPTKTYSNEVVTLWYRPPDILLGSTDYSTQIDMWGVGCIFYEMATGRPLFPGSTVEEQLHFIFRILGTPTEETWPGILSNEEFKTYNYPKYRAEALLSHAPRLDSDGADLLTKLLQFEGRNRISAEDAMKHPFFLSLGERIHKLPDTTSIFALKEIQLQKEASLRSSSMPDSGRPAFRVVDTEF

Sequence of Receptor tyrosine-protein kinase erbB-4 (Q15303 whole entry): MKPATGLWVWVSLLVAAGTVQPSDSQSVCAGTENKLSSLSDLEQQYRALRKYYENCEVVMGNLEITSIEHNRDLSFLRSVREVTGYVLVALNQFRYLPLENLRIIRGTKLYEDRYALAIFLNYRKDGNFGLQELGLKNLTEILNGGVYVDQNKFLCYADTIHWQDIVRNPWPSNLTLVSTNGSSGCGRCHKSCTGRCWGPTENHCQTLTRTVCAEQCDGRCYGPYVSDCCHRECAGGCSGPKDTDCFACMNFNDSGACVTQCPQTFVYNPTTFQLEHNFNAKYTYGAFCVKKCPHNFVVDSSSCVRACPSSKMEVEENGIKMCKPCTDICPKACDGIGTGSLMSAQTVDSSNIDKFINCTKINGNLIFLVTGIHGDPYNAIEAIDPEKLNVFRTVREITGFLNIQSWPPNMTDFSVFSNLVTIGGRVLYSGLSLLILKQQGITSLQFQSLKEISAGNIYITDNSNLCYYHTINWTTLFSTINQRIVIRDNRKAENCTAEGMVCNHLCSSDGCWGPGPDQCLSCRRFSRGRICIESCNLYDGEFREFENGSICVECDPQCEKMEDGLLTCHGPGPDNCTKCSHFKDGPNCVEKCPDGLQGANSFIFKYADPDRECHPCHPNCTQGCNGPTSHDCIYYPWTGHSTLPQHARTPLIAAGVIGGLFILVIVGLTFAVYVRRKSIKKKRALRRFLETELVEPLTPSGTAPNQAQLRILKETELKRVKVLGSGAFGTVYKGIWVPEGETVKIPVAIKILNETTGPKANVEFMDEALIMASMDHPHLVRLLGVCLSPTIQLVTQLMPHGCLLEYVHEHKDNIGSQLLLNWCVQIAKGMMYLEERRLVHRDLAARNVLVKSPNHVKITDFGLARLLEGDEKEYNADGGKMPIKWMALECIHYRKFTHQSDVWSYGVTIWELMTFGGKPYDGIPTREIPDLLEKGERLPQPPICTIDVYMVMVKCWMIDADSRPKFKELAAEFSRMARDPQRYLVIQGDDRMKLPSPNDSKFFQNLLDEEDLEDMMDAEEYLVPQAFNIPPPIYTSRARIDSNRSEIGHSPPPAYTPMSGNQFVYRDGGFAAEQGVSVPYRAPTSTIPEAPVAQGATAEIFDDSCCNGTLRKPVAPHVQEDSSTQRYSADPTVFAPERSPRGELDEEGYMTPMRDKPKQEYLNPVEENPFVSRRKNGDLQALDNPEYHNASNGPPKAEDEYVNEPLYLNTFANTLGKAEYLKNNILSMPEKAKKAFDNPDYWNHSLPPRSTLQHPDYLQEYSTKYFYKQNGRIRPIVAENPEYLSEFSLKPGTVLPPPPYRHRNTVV
Sequence of Leukocyte tyrosine kinase receptor (P29376 whole entry): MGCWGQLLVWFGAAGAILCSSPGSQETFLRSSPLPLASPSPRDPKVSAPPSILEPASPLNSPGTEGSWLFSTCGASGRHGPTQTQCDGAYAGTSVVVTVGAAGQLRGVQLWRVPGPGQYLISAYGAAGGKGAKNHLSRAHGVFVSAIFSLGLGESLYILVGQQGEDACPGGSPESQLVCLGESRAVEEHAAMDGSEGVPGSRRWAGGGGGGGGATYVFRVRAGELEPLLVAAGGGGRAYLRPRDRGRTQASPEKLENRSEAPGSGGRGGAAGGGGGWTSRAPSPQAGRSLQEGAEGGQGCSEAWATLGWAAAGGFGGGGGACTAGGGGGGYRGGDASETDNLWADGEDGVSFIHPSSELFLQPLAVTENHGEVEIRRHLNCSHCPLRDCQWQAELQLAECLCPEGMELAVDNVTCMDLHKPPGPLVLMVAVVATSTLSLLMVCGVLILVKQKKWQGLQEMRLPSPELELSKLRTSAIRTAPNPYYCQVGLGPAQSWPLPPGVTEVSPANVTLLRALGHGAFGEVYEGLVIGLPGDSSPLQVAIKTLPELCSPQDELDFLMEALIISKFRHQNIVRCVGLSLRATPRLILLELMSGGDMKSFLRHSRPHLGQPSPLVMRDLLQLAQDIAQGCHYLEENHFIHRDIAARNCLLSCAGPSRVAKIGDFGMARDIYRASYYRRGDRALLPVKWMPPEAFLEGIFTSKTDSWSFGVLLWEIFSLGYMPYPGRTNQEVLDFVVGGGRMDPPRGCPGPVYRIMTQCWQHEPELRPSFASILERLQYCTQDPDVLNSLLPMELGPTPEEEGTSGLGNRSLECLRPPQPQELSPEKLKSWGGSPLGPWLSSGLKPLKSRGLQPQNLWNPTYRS
Sequence of Casein kinase II subunit alpha (P68400 whole entry, looked up): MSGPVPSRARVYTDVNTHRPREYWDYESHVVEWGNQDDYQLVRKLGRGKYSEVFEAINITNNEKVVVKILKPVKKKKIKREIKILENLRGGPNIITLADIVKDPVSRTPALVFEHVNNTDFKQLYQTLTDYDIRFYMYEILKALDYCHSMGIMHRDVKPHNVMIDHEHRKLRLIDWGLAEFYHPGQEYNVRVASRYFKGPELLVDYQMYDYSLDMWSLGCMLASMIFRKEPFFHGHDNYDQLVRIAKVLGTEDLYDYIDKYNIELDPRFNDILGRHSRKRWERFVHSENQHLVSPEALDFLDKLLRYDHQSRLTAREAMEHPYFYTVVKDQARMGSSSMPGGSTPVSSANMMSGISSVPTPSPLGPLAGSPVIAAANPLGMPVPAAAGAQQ

Turning to `Cn1cc(-n2cnc3c(NCc4nc5cc(Cl)c(Cl)cc5[nH]4)nc(N4CCOCC4)nc32)cn1`, the % of control in assay [1] amounted to 3.71%.

On to `CN(C)C/C=C/C(=O)Nc1ccc(C(=O)N2CCCC(Nc3ncc(Cl)c(-c4c[nH]c5ccccc45)n3)C2)cc1` (stereo not given), for which the % of control in assay [2] was found to be 68%; in assay [3], 96%. Consider `CNC(=O)Nc1ccc(-c2nc(N3CC4CCC(C3)O4)c3cnn(C4CCC5(CC4)OCCO5)c3n2)cc1`, for which the % of inhibition in assay [4] was determined as 8%.

Take `N#Cc1cccc(-c2c[nH]c3ncnc(N4CCOCC4)c23)c1`: the % of control in assay [5] amounted to 75%. Take `CC[C@@H]1[C@H](F)C(=O)N[C@@H]1COc1nccc2cc(C(N)=O)c(OC)cc12` [ZIMLOVISERTIB]: the % of inhibition in assay [6] worked out at 16.1%.

For `C=CC(=O)Nc1cccc(C(=O)Nc2ccc(Nc3cc(-c4[nH]c(SC)nc4C)ccn3)cc2)c1`, the % of control in assay [7] (at 1 µM) is 93%; in assay [7] (at 5 µM), 78%. On to `C=CC(=O)Nc1cc(-n2c(=O)ccc3cnc4ccc(-c5ccc(NS(C)(=O)=O)cc5)cc4c32)ccc1C`, for which the % of control in assay [8] (at 1 µM) and in assay [8] (at 10 µM) was 100% throughout.

The record behind these values is ChEMBL document CHEMBL5465560, “Selectivity Literature for EUbOPEN Chemogenomic Library” (2024).
